Among the data in patent US20120178742A1, “METABOTROPIC GLUTAMATE RECEPTOR MODULATORS” (MERZ PHARMA GmbH & CO. KGaA, priority 2009, published 2012) are IC50 and EC50 values, retold here.

One experiment addresses T1, monoamine oxidase MAO-B (Homo sapiens, UniProt P27338).
T1 construct: host or cells: insect Hi5 cells
T1 sequence (P27338 1-520): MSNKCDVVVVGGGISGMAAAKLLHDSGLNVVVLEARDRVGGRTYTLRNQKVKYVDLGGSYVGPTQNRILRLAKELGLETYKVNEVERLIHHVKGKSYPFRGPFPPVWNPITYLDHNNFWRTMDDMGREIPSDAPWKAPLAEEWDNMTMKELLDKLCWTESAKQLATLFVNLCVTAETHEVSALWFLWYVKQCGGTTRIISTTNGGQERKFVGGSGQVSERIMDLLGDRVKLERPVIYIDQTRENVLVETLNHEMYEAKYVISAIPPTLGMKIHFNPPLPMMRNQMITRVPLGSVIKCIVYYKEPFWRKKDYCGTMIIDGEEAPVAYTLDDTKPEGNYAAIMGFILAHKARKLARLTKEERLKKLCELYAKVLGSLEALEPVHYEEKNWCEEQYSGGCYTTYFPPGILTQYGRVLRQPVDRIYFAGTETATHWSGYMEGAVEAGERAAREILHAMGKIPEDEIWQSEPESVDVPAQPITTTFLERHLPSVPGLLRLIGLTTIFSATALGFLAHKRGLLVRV
As to the kind of experiment: Inhibition of monoamine oxidase MAO-B. It counts as biochemical. To be noted: recombinant human enzyme expressed in insect Hi5 cells, 50 uM kynuramine. Here is the method: The inhibition of the enzyme monoamine oxidase MAO-B is tested with an enzyme from recombinant source, namely of the human enzyme expressed in insect Hi5 cells. Following a pre-incubation of the test compounds with the enzyme for 15 minutes at 37° C. in the incubation buffer (100 mM potassium phosphate, pH 7.4), the enzymatic reaction with 50 uM kynuramine is carried out for 60 minutes. The reaction product 4-hydroxyquinoline is quantified by spectrofluorometry. The compound vehicle used for this assay is 1% DMSO.

In experiment [1] the target is T2, human metabotropic glutamate receptor mGluR5 (Homo sapiens, UniProt P41594).
T2 construct: expressed in transfected cells; host or cells: CHO-K1
As to the kind of experiment: Cytosolic calcium studies with stably transfected cells (CHO-K1). It counts as cell-based. Here is the method: Functional Assay of mGluR5 Receptors Cytosolic Calcium Studies with Stably Transfected Cells
Chinese hamster ovary cells (CHO-K1 cells), stably transfected for inducible expression of a human metabotropic glutamate receptor mGluR5, are seeded into black clear bottom 96 well plates at a density of 35.000 cells per well. The standard growth medium used (Dulbecco's modified Eagle Medium, DMEM plus L-proline) contains the appropriate inducer isopropyl-β-D-thiogalactopyranosid (IPTG) to achieve optimal receptor expression. One day after seeding the growth medium is exchanged for reconstituted Ca-Kit (Molecular Devices, USA) and incubated for one hour. Ca-Kit is reconstituted in an assay buffer containing 20 mM HEPES pH 7.4, glutamic-pyruvate transaminase, pyridoxal phosphate and sodium pyruvate in Hank's balanced salt solution (HBBS). Agonistic compounds to the receptor elicit increases in cytosolic calcium which can be measured as increases in fluorescence signals by use of a fluorescence imaging plate reader (Molecular Devices). […] Similarly, for the characterization of positive allosteric modulators, a dilution series of the test compound is added online to 384 well plates containing the described dye loaded cells and after a preincubation time of 5 minutes stimulated by a basal cell concentration of the agonist L-glutamate giving about 20% of the maximal signal.
(§1) The fluorescence signal increase after addition of agonist reflects the increase of cytosolic calcium. Inconsistencies in the amount of cells per well are normalised by using the spatial uniformity correction of the FLIPR operating software Screenworks. The mean of replicated temporal data (n=3-5) is calculated and used for graphical representation. For the evaluation of the pharmacology, the calcium changes in response to different concentrations of agonist or antagonist are determined using a maximum minus minimum (MaxMin) calculation.
(§2) All responses (RFU-values) are determined as percentage of control (=maximum response). EC50 and IC50 are calculated according the logistic equation using Prism 4.0 (GraphPad Software, USA).

In a further experiment the target is T3, mGluR5 receptors (Rattus norvegicus, UniProt P31424).
T3 construct: Primary astrocyte cultures are prepared from cortices of newborn rats; endogenous in cells; host or cells: primary rat cortical astrocytes (Sprague-Dawley pups)
As to the kind of experiment: Cytosolic calcium studies with cultured rat astrocytes. It counts as cell-based. Here is the method:
Primary astrocyte cultures are prepared from cortices of newborn rats as described by Booher and Sensenbrenner (1972, Neurobiology 2(3):97-105). Briefly, Sprague-Dawley rat pups (2-4 d old) are decapitated and neocortices are dissected, disintegrated with a nylon filter (pore size 80 μm) and carefully triturated. The cell suspension is plated on poly-D-lysine pre-coated flasks (Costar, Netherlands) and cultivated in Dulbecco's Modified Eagle's Medium (DMEM, Invitrogen, Germany) supplemented with 10% foetal calf serum (FCS, Sigma, Germany), 4 mM glutamine and […] gentamycin (both Biochrom, Germany) at 37° C. in a humidified atmosphere of 5% CO2/95% air for 7 days with exchanging the medium at day 2 and 6.
After 7 days in vitro (DIV), cells are shaken overnight at 250 rpm to remove oligodendrocytes and microglia. The next day, astrocytes are rinsed twice with CMF-PBS (calcium- and magnesium-free phosphate buffered saline, Biochrom, Germany), trypsinized and subplated on poly-D-lysine pre-coated 96-well plates (Greiner, Germany) at a density of 40,000 cells/well. 24 h after establishing the secondary culture the astrocytes are rinsed with PBS″ (phosphate buffered saline, Biochrom, Germany) and fed with astrocyte-defined medium (ADM) consisting of DMEM containing 1× G5-supplement (Invitrogen, Germany), 0.5 μg/ml heparan sulfate, and 1.5 μg/ml fibronectin (both Sigma, Germany) (Miller et al., (1993) Brain Res. 618(1):175-8). 3 days later the medium is exchanged and the cells incubated for another 2-3 days, so that at the time of experiments astrocytes are 14-15 DIV.
The increase of cytosolic calcium after stimulation with the mGluR5 agonist L-quisqualate is measured using a fluorometric imaging plate reader (FLIPR) and the Ca-Kit (both Molecular Devices). Prior to addition of agonist or antagonist the medium is aspirated and cells are loaded for 2 h at RT with 150 μl of loading buffer consisting of Ca-sensitive dye reconstituted in sodium chloride (123 mM), potassium chloride (5.4 mM), magnesium chloride (0.8 mM), calcium chloride (1.8 mM), D-glucose (15 mM), and HEPES (20 mM), pH 7.3. Subsequently, plates are transferred to FLIPR to detect calcium increase with the addition of L-quisqualate (100 nM) measured as relative fluorescence units (RFU). If antagonists are tested, these compounds are pre-incubated for 10 minutes at RT before addition of the respective agonist.
Thereafter, concentration-response curves for the positive modulator are performed in the presence of a fixed concentration of quisqualate showing the biggest window for potentiation (normally 10-30 nM).
as §1, §2

T3 sequence (P31424 21-1203): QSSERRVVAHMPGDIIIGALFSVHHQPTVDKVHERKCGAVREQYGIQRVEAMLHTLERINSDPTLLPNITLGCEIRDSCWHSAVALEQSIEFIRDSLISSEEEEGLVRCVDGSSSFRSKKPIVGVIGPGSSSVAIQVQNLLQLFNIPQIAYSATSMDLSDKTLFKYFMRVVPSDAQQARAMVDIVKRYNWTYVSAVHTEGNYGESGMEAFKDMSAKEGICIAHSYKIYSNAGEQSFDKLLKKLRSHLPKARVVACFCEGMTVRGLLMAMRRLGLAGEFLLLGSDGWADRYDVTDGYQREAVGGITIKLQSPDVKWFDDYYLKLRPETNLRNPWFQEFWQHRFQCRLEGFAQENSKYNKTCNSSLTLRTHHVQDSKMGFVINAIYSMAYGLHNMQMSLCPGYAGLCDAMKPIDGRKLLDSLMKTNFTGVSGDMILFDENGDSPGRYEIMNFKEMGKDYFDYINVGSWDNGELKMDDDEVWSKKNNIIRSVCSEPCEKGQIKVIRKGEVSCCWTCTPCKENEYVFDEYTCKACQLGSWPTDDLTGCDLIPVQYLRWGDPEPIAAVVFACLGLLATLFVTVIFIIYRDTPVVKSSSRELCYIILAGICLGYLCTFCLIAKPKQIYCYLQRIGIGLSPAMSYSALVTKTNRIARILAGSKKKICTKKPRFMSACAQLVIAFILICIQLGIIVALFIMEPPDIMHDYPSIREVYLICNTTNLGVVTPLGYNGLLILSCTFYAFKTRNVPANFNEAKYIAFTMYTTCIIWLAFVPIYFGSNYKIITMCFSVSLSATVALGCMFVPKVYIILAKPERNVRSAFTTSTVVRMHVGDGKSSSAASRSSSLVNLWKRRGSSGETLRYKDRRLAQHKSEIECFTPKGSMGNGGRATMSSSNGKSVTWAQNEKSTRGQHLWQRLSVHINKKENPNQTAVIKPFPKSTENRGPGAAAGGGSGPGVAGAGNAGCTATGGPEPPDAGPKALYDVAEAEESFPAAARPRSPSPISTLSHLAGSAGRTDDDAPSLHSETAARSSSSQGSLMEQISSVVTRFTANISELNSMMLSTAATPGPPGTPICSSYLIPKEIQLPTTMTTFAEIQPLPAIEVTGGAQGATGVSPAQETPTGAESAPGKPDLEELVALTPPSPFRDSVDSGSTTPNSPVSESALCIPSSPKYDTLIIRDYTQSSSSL
T2 sequence (P41594 21-1212): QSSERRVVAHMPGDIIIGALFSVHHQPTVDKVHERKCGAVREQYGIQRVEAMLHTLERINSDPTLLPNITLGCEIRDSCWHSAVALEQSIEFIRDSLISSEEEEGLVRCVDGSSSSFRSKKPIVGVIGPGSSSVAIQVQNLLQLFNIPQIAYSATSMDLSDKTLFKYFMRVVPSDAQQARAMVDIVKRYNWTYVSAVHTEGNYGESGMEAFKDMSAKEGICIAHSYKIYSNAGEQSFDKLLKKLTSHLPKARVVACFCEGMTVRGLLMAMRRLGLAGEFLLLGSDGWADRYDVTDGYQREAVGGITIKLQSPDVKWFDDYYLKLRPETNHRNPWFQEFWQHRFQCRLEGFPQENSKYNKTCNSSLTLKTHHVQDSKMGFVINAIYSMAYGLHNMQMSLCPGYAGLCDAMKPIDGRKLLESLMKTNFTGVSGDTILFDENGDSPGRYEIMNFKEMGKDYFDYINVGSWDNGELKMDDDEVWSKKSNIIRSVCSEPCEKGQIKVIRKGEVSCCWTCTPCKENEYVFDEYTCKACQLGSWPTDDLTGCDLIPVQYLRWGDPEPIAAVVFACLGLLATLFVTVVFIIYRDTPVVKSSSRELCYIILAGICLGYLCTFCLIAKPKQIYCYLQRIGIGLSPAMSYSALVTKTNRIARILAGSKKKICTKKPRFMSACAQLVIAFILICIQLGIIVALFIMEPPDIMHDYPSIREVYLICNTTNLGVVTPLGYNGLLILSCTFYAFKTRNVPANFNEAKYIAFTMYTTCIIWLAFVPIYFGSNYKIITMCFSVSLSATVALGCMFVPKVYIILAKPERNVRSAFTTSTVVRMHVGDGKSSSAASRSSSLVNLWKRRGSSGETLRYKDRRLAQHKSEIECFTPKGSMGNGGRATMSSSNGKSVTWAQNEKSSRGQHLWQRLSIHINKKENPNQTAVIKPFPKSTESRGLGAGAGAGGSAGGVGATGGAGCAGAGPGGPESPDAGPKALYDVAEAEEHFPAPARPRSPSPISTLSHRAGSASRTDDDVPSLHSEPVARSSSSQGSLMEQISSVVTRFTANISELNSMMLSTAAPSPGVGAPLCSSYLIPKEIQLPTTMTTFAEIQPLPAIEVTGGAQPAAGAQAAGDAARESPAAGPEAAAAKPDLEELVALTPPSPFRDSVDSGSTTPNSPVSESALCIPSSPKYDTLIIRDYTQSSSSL

One may read the IC50 as the midpoint of a concentration-inhibition curve. In general, EC50 refers to the midpoint of the concentration-response curve. Regarding `Fc1cccc(C#Cc2cnc3nccnc3c2)c1` [Example 60, 7-(3-Fluoro-phenylethynyl)-pyrido[2,3-b]pyrazine], at monoamine oxidase MAO-B, the concentration for half-maximal inhibition (IC50) turned out to be 89 nM. The EC50 was 100 nM in experiment [1] and 54 nM on mGluR5 receptors.
As to `Fc1ccccc1C#Cc1cnc2nccnc2c1` [Example 61, 7-(2-Fluoro-phenylethynyl)-pyrido[2,3-b]pyrazine], the IC50 on monoamine oxidase MAO-B amounted to 37 nM. The values for the concentration giving a half-maximal response (EC50) (in experiment [1]; on mGluR5 receptors) were 300 nM and 190 nM, respectively.
As to `C(#Cc1cnc2nc(N3CCCCC3)sc2c1)c1ccccc1` [Example 81, 6-Phenylethynyl-2-piperidin-1-yl-thiazolo[4,5-b]pyridine], the IC50 at monoamine oxidase MAO-B came to 520 nM. The half-maximal effective concentration (EC50) in experiment [1] came to 91 nM.
As to `Fc1ccc(C#Cc2cnc3ncsc3c2)cc1` [Example 46, 6-(4-Fluoro-phenylethynyl)-thiazolo[4,5-b]pyridine], the 50% inhibitory concentration (IC50) at monoamine oxidase MAO-B was 540 nM. The EC50 in experiment [1] is 58 nM; at mGluR5 receptors, 91 nM.
